Test results from PMC6225232, “Design, Synthesis and Biological Evaluation of Ligustrazine-Flavonoid Derivatives as Potential Anti-Tumor Agents” (Molecules : A Journal of Synthetic Chemistry and Natural …, 2018).

What was measured:
Assay type in all cases: cell-based, human
[1] = test system: MCF-7; assay: MTT cytotoxicity assay, MCF-7
Description: (§1) Five kinds of tumor cell lines and one normal endothelial cell were routinely cultured respectively in RPMI 1640 medium supplemented with 10% (V/V) FBS and 1% (V/V) penicillin-streptomycin, incubated at 37 °C in a 5% CO2 containing incubator. The five tumor cell lines were plated onto 96-well sterile plates in 100 μL/well of medium at a density of 3.5 × 10^3 cells per well and incubated at 37 °C with 5% CO2 for 24 h. Then luteolin, baicalein, apigenin, chrysin, quercetin, fisetin, genistein, daidzein, naringenin, DDP and compounds 10–25 were added at various concentrations (5, 10, 20, 40, 50 μΜ). Each plate contained control group, blank group, drug group and positive group (DDP). After 72 h, 20 μL MTT in phosphate buffered saline (PBS, 5 mg/mL) was added to each well and the plates were incubated at 37 °C for 4 h, then removing the liquid and adding dimethyl sulfoxide (DMSO, 100 μL) to dissolve the MTT formazan. The optical density (OD) for each well was measured on a BIORAD 550 spectrophotometer plate reader (Bio-Gene Technology Ltd., Guangzhou, China) at a wavelength of 490 nm. All tests were carried out three times in parallel.

[2] = test system: HUVEC-12; assay: MTT cytotoxicity assay using HUVEC-12 cell; settings: for Proliferation Rate (%) 2.5 μM / Proliferation Rate (%) 5 μM / Proliferation Rate (%) 10 μM / Proliferation Rate (%) 20 μM / Proliferation Rate (%) 40 μM: HUVEC-12, 24 h, negative = inhibition; for IC50: MTT, 24 h
Description: Five kinds of tumor cell lines and one normal endothelial cell were routinely cultured respectively in RPMI 1640 medium supplemented with 10% (V/V) FBS and 1% (V/V) penicillin-streptomycin, incubated at 37 °C in a 5% CO2 containing incubator.
The HUVEC-12 cell were seeded in 96-well plates (6.0 × 10^3 cells/ well), and incubated at 37 °C in a 5% CO2 containing incubator. After 24 h, the medium was replaced with fresh medium containing the compounds to be tested. Compounds 14, 19 and DDP were added in final concentrations ranging from 2.5 to 40 μM. Each plate contained control group, blank group and drug group. After 24 h, 20 μL MTT was added to each well and the plates were incubated at 37 °C for 4 h, then removing the liquid and adding dimethyl sulfoxide (DMSO) (100 μL) to dissolve the MTT formazan. The optical density (OD) for each well was measured on a BIORAD 550 spectrophotometer plate reader at a wavelength of 490 nm. All tests were carried out three times in parallel. The proliferation inhibition rates of tumor cells were calculated by {1 − [OD490 (Drug group) − OD490 (Blank group)]/[OD490 (Control group) − OD490 (Blank group)]} × 100%.

[3] = test system: HeLa; assay: MTT cytotoxicity assay, HeLa; settings: 72 h
Description: as §1

[4] = test system: HT-29; assay: MTT cytotoxicity assay, HT-29
Description: as §1

[5] = test system: Bel-7402 cells; assay: Morphological analysis using Giemsa and DAPI staining; settings: 72 h
Description: The Bel-7402 cells were plated onto 12-well sterile plates at a density of 2.4 × 10^4 cells per well and incubated at 37 °C in a 5% CO2 containing incubator. Then the cells were incubated in the presence of compound 14 at various concentrations (0, 10, 20, 40 μΜ) for 72 h. Then cells were washed with PBS twice, fixed with cold ethanol and 4% paraformaldehyde (pH = 7.4) for 10 min respectively and washed with PBS again. Then fixed cells were stained with 6% Giemsa solution or DAPI at the concentration of 1 mg/mL for 5 min in the dark. Finally, the cells washed with water and dried. The cell morphological changes were observed by fluorescent microscopy and images were captured by digital camera.

[6] = test system: HepG-2; assay: MTT cytotoxicity assay, HepG-2
Description: as §1

[7] = test system: Bel-7402 cells; assay: Apoptosis analysis by flow cytometry, Annexin V-FITC/PI staining; settings: 72 h, control 5.4%
Description: The Bel-7402 cells were plated onto 6-well sterile plates (4.8 × 10^4 cells/well) and placed at 37 °C with 5% CO2 for 24 h. Then compound 14 at various concentrations (0, 5, 10, 20 μΜ) was added. After 72 h, all cells were collected respectively with the right amount of trypsin (without EDTA) digestion. Then the cells were washed with cold PBS twice and centrifuged at 1000 rpm for 5 min. The harvested cells were resuspended in 200 μL binding buffer, which contained 10 μL Annexin V-FITC and PI. After avoided light reaction for 15 min, the cells were analyzed with a flow cytometer.

[8] = test system: Bel-7402; assay: MTT cytotoxicity assay, Bel-7402
Description: as §1

Compound | IC50 ([1]; Homo sapiens, MCF7, 72 h) | IC50 ([3]; Homo sapiens) | IC50 ([4]; Homo sapiens, HT-29, 72 h) | IC50 ([6]; Homo sapiens, HepG2, 72 h) | IC50 ([8]; Homo sapiens, Bel-7402, 72 h) | also measured
Cc1nc(C)c(COc2ccc(/C=C/C(=O)c3c(O)cc(OCc4nc(C)c(C)nc4C)cc3OCc3nc(C)c(C)nc3C)cc2)nc1C [Compound 14, (E)-1-(2-Hydroxy-4,6-bis((3,5,6-trimethylpyrazin-2-yl)methoxy)phenyl)-3-(4-((3,5,6-trimethylpyrazin-2-yl)methoxy)phenyl)prop-2-en-1-one] | 29.8 ± 2.18 µM | 25.1 ± 1.8 µM | 31.9 ± 1.96 µM | 17.3 ± 0.47 µM | 10.5 ± 1.12 µM | Proliferation Rate (%) 2.5 μM [2]: 1.62 ± 0.75%; Proliferation Rate (%) 5 μM [2]: 1.99 ± 0.23%; Proliferation Rate (%) 10 μM [2]: 14.84 ± 1.41%; Proliferation Rate (%) 20 μM [2]: 16.71 ± 0.29%; Proliferation Rate (%) 40 μM [2]: −2.32 ± 1.37%; IC50 ([2]; Homo sapiens): > 40 µM; cell morphology, Giemsa staining ([5]; Bel-7402, 40 μM): mainly cell fragments rather than complete cells; cell morphology, DAPI staining ([5]; Bel-7402, 10, 20, 40 μM): morphological features of apoptosis; apoptosis ratio (early and late) ([7]; Bel-7402, 10 μM): 45.5%; apoptosis ratio (early and late) ([7]; Bel-7402, 20 μM): 54.6%; IC50 ([8]; 72 h): 10.7 ± 1.12 µM
Cc1nc(C)c(COc2cc(O)c3c(=O)cc(-c4ccccc4)oc3c2)nc1C [Compound 10, 5-Hydroxy-2-phenyl-7-((3,5,6-trimethylpyrazin-2-yl)methoxy)-4H-chromen-4-one] | > 40 µM | 26.7 ± 0.34 µM | > 40 µM | > 40 µM | > 40 µM | 
O=c1cc(-c2ccc(O)cc2)oc2cc(O)cc(O)c12 [Apigenin] | 29.7 ± 1.43 µM | 30.6 ± 0.71 µM | 23.4 ± 1.89 µM | 16.1 ± 1.52 µM | 28.2 ± 0.38 µM | 
Cc1nc(C)c(COc2cc3oc(-c4ccccc4)cc(=O)c3c(OCc3nc(C)c(C)nc3C)c2OCc2nc(C)c(C)nc2C)nc1C [Compound 13, 2-Phenyl-5,6,7-tris((3,5,6-trimethylpyrazin-2-yl)methoxy)-4H-chromen-4-one] | > 40 µM | 17.3 ± 1.07 µM | 22.4 ± 0.35 µM | 13.4 ± 2.5 µM | 26.13 ± 0.11 µM | 
O=c1c(-c2ccc(O)cc2)coc2cc(O)cc(O)c12 [Genistein] | 35.6 ± 1.38 µM | 34.6 ± 2.52 µM | 31.13 ± 0.26 µM | 19.8 ± 1.31 µM | 34.7 ± 0.63 µM | 
N.N.[Cl][Pt][Cl] [DDP, reference compound] |  |  |  |  |  | IC50 ([1]; 72 h): 6.75 ± 0.57 µM; Proliferation Rate (%) 2.5 μM [2]: −23.93 ± 0.75%; Proliferation Rate (%) 5 μM [2]: −31.38 ± 1.46%; Proliferation Rate (%) 10 μM [2]: −58.24 ± 0.82%; Proliferation Rate (%) 20 μM [2]: −66.58 ± 1.75%; Proliferation Rate (%) 40 μM [2]: −82.69 ± 2.19%; IC50 [2]: 9.11 ± 0.54 µM; IC50 [3]: 4.76 ± 0.41 µM; IC50 ([4]; 72 h): 5.83 ± 0.59 µM; IC50 ([6]; 72 h): 4.14 ± 0.16 µM; IC50 ([8]; 72 h): 6.73 ± 0.37 µM
O=c1c(O)c(-c2ccc(O)c(O)c2)oc2cc(O)cc(O)c12 [Quercetin] | > 40 µM | 20.8 ± 4.04 µM | 27 ± 0.47 µM | 13.6 ± 0.73 µM | 30.4 ± 2.51 µM | 
Cc1nc(C)c(COc2ccc(-c3coc4cc(OCc5nc(C)c(C)nc5C)cc(O)c4c3=O)cc2)nc1C [Compound 17, 5-Hydroxy-7-((3,5,6-trimethylpyrazin-2-yl)methoxy)-3-(4-((3,5,6-trimethylpyrazin-2-yl)methoxy)-phenyl)-4H-chromen-4-one] | > 40 µM | > 40 µM | 10.7 ± 1.35 µM | > 40 µM | > 40 µM | 
O=c1c(O)c(-c2ccc(O)c(O)c2)oc2cc(O)ccc12 [Fisetin] | 38.1 ± 1.83 µM | 20.9 ± 1.65 µM | 23.9 ± 0.81 µM | 17.4 ± 1.04 µM | 25.5 ± 1.54 µM | 
Cc1nc(C)c(COc2ccc(/C=C/C(=O)c3c(OCc4nc(C)c(C)nc4C)cc(OCc4nc(C)c(C)nc4C)cc3OCc3nc(C)c(C)nc3C)cc2)nc1C [Compound 16, (E)-3-(4-((3,5,6-Trimethylpyrazin-2-yl)methoxy)phenyl)-1-(2,4,6-tris((3,5,6-trimethylpyrazin-2-yl)-methoxy)phenyl)prop-2-en-1-one] | 16.5 ± 0.45 µM | 30.5 ± 2.62 µM | 34.4 ± 2.32 µM | 20.6 ± 1.39 µM | > 40 µM | 
O=c1cc(-c2ccccc2)oc2cc(O)c(O)c(O)c12 [Baicalein] | 37.9 ± 1.52 µM | 22.8 ± 3.54 µM | 19.2 ± 2.72 µM | 20.4 ± 2.07 µM | 21.6 ± 3.68 µM | 
Cc1nc(C)c(COc2ccc(-c3coc4cc(OCc5nc(C)c(C)nc5C)ccc4c3=O)cc2)nc1C [Compound 20, 7-((3,5,6-Trimethylpyrazin-2-yl)methoxy)-3-(4-((3,5,6-trimethylpyrazin-2-yl)methoxy)phenyl)-4H-chromen-4-one] | > 40 µM | 16.5 ± 1.79 µM | 10.9 ± 2.3 µM | > 40 µM | 25.2 ± 1.72 µM | 
Cc1nc(C)c(COc2ccc(-c3coc4cc(O)ccc4c3=O)cc2)nc1C [Compound 19, 7-Hydroxy-3-(4-((3,5,6-trimethylpyrazin-2-yl)methoxy)phenyl)-4H-chromen-4-one] | 10.4 ± 1.23 µM | 14.3 ± 1.17 µM | 11.7 ± 1.29 µM | 14.5 ± 0.48 µM | 28.9 ± 0.49 µM | Proliferation Rate (%) 2.5 μM [2]: −8.75 ± 0.38%; Proliferation Rate (%) 5 μM [2]: −19.35 ± 0.35%; Proliferation Rate (%) 10 μM [2]: −19.49 ± 2.17%; Proliferation Rate (%) 20 μM [2]: −24.22 ± 3.19%; Proliferation Rate (%) 40 μM [2]: −25.07 ± 1.02%; IC50 ([2]; Homo sapiens): > 40 µM
O=c1cc(-c2ccc(O)c(O)c2)oc2cc(O)cc(O)c12 [Luteolin] | 17 ± 0.31 µM | 21.3 ± 1.12 µM | 19.2 ± 1.17 µM | 11.8 ± 0.44 µM | 14.5 ± 0.68 µM | 
O=c1c(-c2ccc(O)cc2)coc2cc(O)ccc12 [Daidzein] | 36.8 ± 1.48 µM | > 40 µM | > 40 µM | 21.8 ± 1.53 µM | > 40 µM | 
O=c1cc(-c2ccccc2)oc2cc(O)cc(O)c12 [Chrysin] | 32.1 ± 2.78 µM | > 40 µM | 30.3 ± 1.96 µM | 15.6 ± 0.3 µM | 35 ± 1.46 µM | 
